Assay: Example 12: biodegradability, 302 Revised Zahn-Wellens test (OECD Chemical Test Guideline)

A biodegradable of 70% was found for `CN(CCN(C)[C@@H](CC(=O)O)C(=O)O)[C@@H](CC(=O)O)C(=O)O` [Compound 32] in this work.
A biodegradable of 70% was found for `CN(CCN(C)[C@@H](CCC(=O)O)C(=O)O)[C@@H](CCC(=O)O)C(=O)O` [Compound 45] in this work.
In the case of `O=C(O)CN(CCN(CC(=O)O)CC(=O)O)CC(=O)O` [Ethylenediaminetetraacetic acid, reference compound], the “biodegradability (in words)” value is reported as “scarcely biodegradable”.

— patent US6340560B1, “Aminopolycarboxylic acid chelating agent, heavy metal chelate compound thereof, photographic additive and processing method” (Fuji Photo Film Co., Ltd., priority 1996, dated 2002)
